Results from patent US20250290117A1, “MOLECULAR PHENOTYPIC ANTIMICROBIAL SUSCEPTIBILITY TESTING” (priority 2024, published 2025).

Test system: pathogens of clinical samples
Assay: Molecular phenotypic antimicrobial susceptibility test of clinical samples, direct PCR without a separate DNA purification step (Table 6)
Type: cell-based
Description: Detection of Molecular Phenotypic Antimicrobial Susceptibility. Disclosed herein are the methods for the detection of phenotypic antimicrobial susceptibility via molecular methods. The present invention describes how a specimen 100 with a known microbial load is incubated and then exposed to a panel of antimicrobial agents to determine sensitivity (prevention of growth) or resistance (allowance of growth) to the specific antimicrobial agents tested utilizing molecular methods.
Sample Collection. Specimens 100 are collected from patients using sterile collection processes that are employed in routine clinical care. Specimens are transported to the testing facility in boric acid preservative.
Preparation of the Specimens for Testing. […] The process for pathogen isolation includes steps of harvesting the pathogen (e.g., via centrifugation), isolating pathogen DNA via a DNA isolation and/or purification kit, and performing PCR on the pathogen DNA via PCR components (e.g., primers, enzymes, buffers) as would be known to the skilled artisan. […] This aliquot is used for antimicrobial susceptibility testing if indicated based on the pathogen detection results. […] Specimens 100 with lower pathogen loads could also be utilized in the antibiotic susceptibility phase of testing with or without a longer incubation period.
Preparation of Antimicrobial Susceptibility Testing Plates. Antimicrobial solutions are prepared at known concentrations. The specific antimicrobials and their concentrations are selected based on the pathogen of interest and the described antimicrobial resistance breakpoints for that specimen pathogen and antimicrobial combination. These antimicrobials have been selected based on those commonly utilized by healthcare providers in routine clinical care for the specific type of suspected infection. The number and types of antimicrobials utilized can be customized based on the infection source, pathogen detected, patient-specific factors such as allergies or other health conditions (e.g., chronic kidney disease or concurrent medication use), or healthcare provider preferences such as antimicrobial availability or cost.
The antimicrobial solutions are prepared in liquid culture media (such as Muller Hinton Broth) to achieve the desired antimicrobial concentration and are then stored at −80° C. until use. For a given specimen, each antimicrobial is tested at a single or multiple antimicrobial concentration(s) which is its established breakpoints for sensitivity. The antimicrobial solutions are prepared and plated out for each specific pathogen. […] This allows for evaluation of pathogen load when no antimicrobial is present.
Specimen Exposure to Antimicrobial Agents. The 1 mL aliquot of the specimen 100 previously mixed with culture media and incubated is obtained. Using optical density measurements as a guide, the specimen 100 is diluted to 0.5 McFarland.
Antimicrobial exposure plates are typically placed into an incubator for 12-16 hours.
Nucleic Acid Amplification of Antimicrobial Agent Exposed Pathogens. The antimicrobial exposure plate is removed after the period of incubation. The specimen then undergoes a purification or lysis step. For example, the specimen may undergo a purification step (e.g., magnetic bead-based or other separation protocol to isolate genetic material). In another example, the specimen may undergo a cell lysis step. For example, buffer (e.g., lysis buffer) may be added and incubated in the thermal cycler for preparation for direct PCR. Next, the specimen may undergo a polymerase chain reaction (PCR) testing protocol, whereby a semi-quantitative PCR method is utilized. This may be completed either with or without a specific extraction protocol step. The pathogens can be individually targeted and detected, or a universal genetic sequence can be utilized to detect the antimicrobial susceptibility of the specimen as a whole.

[1] = E. coli, clinical sample of r10-r24
[2] = E. coli, clinical sample of r10-r24, Ct control avg 12.97
[3] = E. coli, clinical sample of r158-r172
[4] = E. coli, clinical sample of r158-r172, Ct control avg 12.894
[5] = E. faecalis, clinical sample of r93-r99
[6] = E. faecalis, clinical sample of r93-r99, Ct control avg 22.011
[7] = E. faecalis, clinical sample of r100-r106
[8] = E. faecalis, clinical sample of r100-r106, Ct control avg 21.027
[9] = E. faecalis, clinical sample of r107-r113
[10] = E. faecalis, clinical sample of r107-r113, Ct control avg 20.529
[11] = E. faecalis, clinical sample of r114-r120
[12] = E. faecalis, clinical sample of r114-r120, Ct control avg 20.909
[13] = E. faecalis, clinical sample of r151-r157
[14] = E. faecalis, clinical sample of r151-r157, Ct control avg 18.551
[15] = K. aerogenes, clinical sample of r136-r150
[16] = K. aerogenes, clinical sample of r136-r150, Ct control avg 13.854
[17] = K. pneumoniae, clinical sample of r121-r135
[18] = K. pneumoniae, clinical sample of r121-r135, Ct control avg […]
[19] = M. morganii, clinical sample of r55-r69
[20] = M. morganii, clinical sample of r55-r69, Ct control avg 12.09
[21] = M. morganii, clinical sample of r70-r84
[22] = M. morganii, clinical sample of r70-r84, Ct control avg 11.677
[23] = P. mirabilis, clinical sample of r25-r39
[24] = P. mirabilis, clinical sample of r25-r39, Ct control avg 11.801
[25] = P. mirabilis, clinical sample of r40-r54
[26] = P. mirabilis, clinical sample of r40-r54, Ct control avg 10.06

SMILES | Molecular Antibiotic Susceptibility Result [1] | Ct [2] | Molecular Antibiotic Susceptibility Result [3] | Ct [4] | Molecular Antibiotic Susceptibility Result [5] | Ct [6] | Molecular Antibiotic Susceptibility Result [7] | Ct [8] | Molecular Antibiotic Susceptibility Result [9] | Ct [10] | Molecular Antibiotic Susceptibility Result [11] | Ct [12] | Molecular Antibiotic Susceptibility Result [13] | Ct [14] | Molecular Antibiotic Susceptibility Result [15] | Molecular Antibiotic Susceptibility Result [17] | Molecular Antibiotic Susceptibility Result [19] | Molecular Antibiotic Susceptibility Result [21] | Molecular Antibiotic Susceptibility Result [23] | Molecular Antibiotic Susceptibility Result [25] | other results
CC1(C)S[C@@H]2[C@H](NC(=O)[C@H](N)c3ccccc3)C(=O)N2[C@H]1C(=O)O [Ampicillin] | Resistant | 12.039 | Sensitive (Antimicrobial wells with pathogen load detected below the control wells (typically >2 cycle thresholds later) may be reported as Sensitive) | 28.274 | Sensitive (Antimicrobial wells with pathogen load detected below the control wells (typically >2 cycle thresholds later) may be reported as Sensitive) | 29.527 | sensitive | 33.467 | sensitive | 27.555 | Sensitive (Antimicrobial wells with pathogen load detected below the control wells (typically >2 cycle thresholds later) may be reported as Sensitive) | 27.767 | Sensitive (Antimicrobial wells with pathogen load detected below the control wells (typically >2 cycle thresholds later) may be reported as Sensitive) | 32.884 | Sensitive (Antimicrobial wells with pathogen load detected below the control wells (typically >2 cycle thresholds later) may be reported as Sensitive) | Resistant | Resistant | Resistant | Sensitive (Antimicrobial wells with pathogen load detected below the control wells (typically >2 cycle thresholds later) may be reported as Sensitive) | Sensitive (Antimicrobial wells with pathogen load detected below the control wells (typically >2 cycle thresholds later) may be reported as Sensitive) | Ct [16]: 16.046; Ct [18]: 14.269; Ct [20]: 10.538; Ct [22]: 11.867; Ct [24]: 29.219; Ct [26]: 30.995
Cc1nnc(SCC2=C(C(=O)O)N3C(=O)[C@@H](NC(=O)Cn4cnnn4)[C@H]3SC2)s1 [Cefazolin] | Sensitive (Antimicrobial wells with pathogen load detected below the control wells (typically >2 cycle thresholds later) may be reported as Sensitive) |  | Sensitive (Antimicrobial wells with pathogen load detected below the control wells (typically >2 cycle thresholds later) may be reported as Sensitive) |  |  |  |  |  |  |  |  |  |  |  | Sensitive (Antimicrobial wells with pathogen load detected below the control wells (typically >2 cycle thresholds later) may be reported as Sensitive) | Sensitive (Antimicrobial wells with pathogen load detected below the control wells (typically >2 cycle thresholds later) may be reported as Sensitive) | Resistant | Resistant | Sensitive (Antimicrobial wells with pathogen load detected below the control wells (typically >2 cycle thresholds later) may be reported as Sensitive) | Sensitive (Antimicrobial wells with pathogen load detected below the control wells (typically >2 cycle thresholds later) may be reported as Sensitive) | 
C[C@@H]1O[C@@H]1P(=O)(O)O [Fosfomycin] | Sensitive (Antimicrobial wells with pathogen load detected below the control wells (typically >2 cycle thresholds later) may be reported as Sensitive) | 25.481 | Sensitive (Antimicrobial wells with pathogen load detected below the control wells (typically >2 cycle thresholds later) may be reported as Sensitive) | 27.932 | Sensitive (Antimicrobial wells with pathogen load detected below the control wells (typically >2 cycle thresholds later) may be reported as Sensitive) | 30.578 | sensitive | 33.882 | Resistant | 19.527 | Sensitive (Antimicrobial wells with pathogen load detected below the control wells (typically >2 cycle thresholds later) may be reported as Sensitive) | 27.178 | Sensitive (Antimicrobial wells with pathogen load detected below the control wells (typically >2 cycle thresholds later) may be reported as Sensitive) | 32.048 | Sensitive (Antimicrobial wells with pathogen load detected below the control wells (typically >2 cycle thresholds later) may be reported as Sensitive) | Resistant | Sensitive (Antimicrobial wells with pathogen load detected below the control wells (typically >2 cycle thresholds later) may be reported as Sensitive) | Sensitive (Antimicrobial wells with pathogen load detected below the control wells (typically >2 cycle thresholds later) may be reported as Sensitive) | Sensitive (Antimicrobial wells with pathogen load detected below the control wells (typically >2 cycle thresholds later) may be reported as Sensitive) | Sensitive (Antimicrobial wells with pathogen load detected below the control wells (typically >2 cycle thresholds later) may be reported as Sensitive) | Ct [16]: 19.581; Ct [18]: 14.895; Ct [20]: 18.368; Ct [22]: 28.123; Ct [24]: 26.9; Ct [26]: 27.935
